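A five-concentration, 48-hour dose response in 96-well plates underlies each endpoint, interpolated linearly between surrounding concentrations. GI50: concentration for 50% inhibition of growth.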 Active and inactive are the calls of the source. Rule as the data show it: active = GI50 up to about 1.1 µM and inactive = higher.
Assays:
Assay in all cases: growth of human tumour cells (NCI), 48 h
UACC-62 = system: UACC-62
SN12C = system: SN12C
SW-620 = system: SW-620
OVCAR-4 = system: OVCAR-4
KM12 = system: KM12
HOP-62 = system: HOP-62
RPMI-8226 = system: RPMI-8226
HCC 2998 = system: HCC 2998
COLO 205 = system: COLO 205
SK-MEL-5 = system: SK-MEL-5
NCI-H460 = system: NCI-H460
TK-10 = system: TK-10
SF-268 = system: SF-268
NCI-H23 = system: NCI-H23
EKVX = system: EKVX
SK-MEL-2 = system: SK-MEL-2
NCI-H522 = system: NCI-H522

Measured: GI50

Cc1ccccc1C(=O)Oc1ccc(OCc2ccccc2)cc1
inactive: UACC-62 83.8 µM | SN12C 93.8 µM | SW-620 > 100 µM | OVCAR-4 > 100 µM | KM12 > 100 µM | HOP-62 > 100 µM | RPMI-8226 25.6 µM | HCC 2998 35.9 µM | COLO 205 > 100 µM | SK-MEL-5 48.6 µM | NCI-H460 39.1 µM | TK-10 > 100 µM | SF-268 > 100 µM | NCI-H23 66.8 µM | EKVX > 100 µM

O=C1C=C(N2CCCC2)C=C(N2CCCC2)C1
inactive: SK-MEL-2 > 100 µM | UACC-62 > 100 µM | SW-620 > 100 µM | KM12 > 100 µM | HOP-62 > 100 µM | RPMI-8226 > 100 µM | HCC 2998 > 100 µM | COLO 205 > 100 µM | NCI-H522 > 100 µM | SK-MEL-5 > 100 µM | NCI-H460 > 100 µM | TK-10 > 100 µM | SF-268 > 100 µM | NCI-H23 > 100 µM | EKVX > 100 µM

Cc1cccc(NC2=NC(=O)C(CC(=O)Nc3cccc(C)c3C)S2)c1 (stereo not drawn)
inactive: SK-MEL-2 > 100 µM | UACC-62 > 100 µM | SN12C > 100 µM | SW-620 > 100 µM | OVCAR-4 > 100 µM | KM12 > 100 µM | HOP-62 > 100 µM | RPMI-8226 85.9 µM | HCC 2998 > 100 µM | COLO 205 > 100 µM | SK-MEL-5 > 100 µM | NCI-H460 > 100 µM | TK-10 > 100 µM | SF-268 > 100 µM | NCI-H23 > 100 µM | EKVX > 100 µM

Oc1ccccc1/C=N/Cc1ccco1
inactive: UACC-62 > 100 µM | SN12C > 100 µM | SW-620 > 100 µM | OVCAR-4 > 100 µM | KM12 > 100 µM | HOP-62 > 100 µM | RPMI-8226 > 100 µM | NCI-H460 > 100 µM | TK-10 > 100 µM | SF-268 > 100 µM | NCI-H23 > 100 µM | EKVX > 100 µM

Cc1nc2c(sc(=S)n2-c2ccccc2)c2nc3ccccc3n12
inactive: SK-MEL-2 > 100 µM | UACC-62 > 100 µM | SN12C > 100 µM | OVCAR-4 > 100 µM | KM12 > 100 µM | HOP-62 > 100 µM | RPMI-8226 > 100 µM | HCC 2998 > 100 µM | COLO 205 > 100 µM | NCI-H522 > 100 µM | TK-10 > 100 µM | SF-268 > 100 µM | NCI-H23 > 100 µM | EKVX > 100 µM

CN(C)CCNC(=O)C1COc2cc(-c3cc(=O)c4ccccc4o3)ccc2O1 (stereo not drawn)
inactive: UACC-62 18.8 µM | SN12C 22.4 µM | SW-620 18.2 µM | OVCAR-4 17.8 µM | HOP-62 33 µM | RPMI-8226 27.9 µM | HCC 2998 > 100 µM | COLO 205 16.6 µM | NCI-H522 16.6 µM | SK-MEL-5 15.2 µM | NCI-H460 38.2 µM | TK-10 29.6 µM | SF-268 23.7 µM | NCI-H23 41.1 µM | EKVX 53.5 µM

O=C(Nc1cccc2ccccc12)Oc1ccccc1C1CCCCC1
inactive: SK-MEL-2 18.2 µM | UACC-62 15.9 µM | SN12C 16 µM | SW-620 20.6 µM | OVCAR-4 16.3 µM | KM12 20.2 µM | HOP-62 19 µM | RPMI-8226 30.3 µM | HCC 2998 18.5 µM | COLO 205 > 10 µM | SK-MEL-5 15.5 µM | NCI-H460 18.5 µM | TK-10 23 µM | SF-268 24.4 µM | NCI-H23 17.9 µM | EKVX 22.6 µM

NC(=O)C12CC3CC(CC(F)(C3)C1)C2
inactive: SK-MEL-2 > 100 µM | UACC-62 > 100 µM | SW-620 > 100 µM | KM12 > 100 µM | HOP-62 > 100 µM | RPMI-8226 > 100 µM | HCC 2998 > 100 µM | COLO 205 > 100 µM | NCI-H522 > 100 µM | NCI-H460 > 100 µM | TK-10 > 100 µM | NCI-H23 > 100 µM | EKVX > 100 µM

COc1cc2ccc(/C(C)=N/OC(C)=O)cc2cc1OC
inactive: SK-MEL-2 81.3 µM | UACC-62 20.8 µM | SN12C 49.5 µM | SW-620 > 100 µM | OVCAR-4 > 100 µM | KM12 > 100 µM | RPMI-8226 84.7 µM | COLO 205 > 100 µM | NCI-H522 22.4 µM | NCI-H460 82.2 µM | TK-10 44.8 µM | SF-268 44.4 µM | NCI-H23 > 100 µM | EKVX 3.58 µM

C[N+](C)(C)CC(=O)N/N=c1\cc(C(=O)Nc2ccc(N=O)cc2C#N)oc2cc(O)ccc12
inactive: SK-MEL-2 > 100 µM | UACC-62 > 100 µM | SN12C > 100 µM | SW-620 > 100 µM | OVCAR-4 > 100 µM | KM12 > 100 µM | HOP-62 > 100 µM | HCC 2998 > 100 µM | COLO 205 > 100 µM | NCI-H522 > 100 µM | SK-MEL-5 > 100 µM | NCI-H460 > 100 µM | TK-10 > 100 µM | SF-268 > 100 µM | NCI-H23 > 100 µM | EKVX > 100 µM

O=C(CC/C(CC(=O)c1ccc(Cl)cc1)=N/O)Nc1ccc(Cl)c(Cl)c1
inactive: SK-MEL-2 38.3 µM | UACC-62 18.3 µM | SN12C > 100 µM | SW-620 > 100 µM | OVCAR-4 43.4 µM | KM12 > 100 µM | HOP-62 > 100 µM | RPMI-8226 76.9 µM | COLO 205 > 100 µM | NCI-H522 82.6 µM | SK-MEL-5 76.2 µM | NCI-H460 > 100 µM | TK-10 > 100 µM | SF-268 > 100 µM | NCI-H23 45.5 µM | EKVX 10.3 µM

COc1ccc(CC(=O)NCCc2ccc(OC)c(OC)c2)cc1Br
inactive: SK-MEL-2 > 100 µM | UACC-62 62.1 µM | SN12C > 100 µM | SW-620 > 100 µM | OVCAR-4 > 100 µM | KM12 > 100 µM | HOP-62 > 100 µM | HCC 2998 > 100 µM | COLO 205 > 100 µM | NCI-H522 > 100 µM | NCI-H460 > 100 µM | TK-10 > 100 µM | SF-268 > 100 µM | NCI-H23 > 100 µM | EKVX > 100 µM

O=C1OC(c2ccccc2)(c2ccccc2)CC1CN1CCOCC1 (stereo not drawn)
inactive: SK-MEL-2 17.9 µM | UACC-62 25.6 µM | SN12C 12.5 µM | SW-620 5.07 µM | OVCAR-4 23.1 µM | KM12 16.7 µM | HOP-62 > 100 µM | HCC 2998 16.5 µM | COLO 205 6.18 µM | NCI-H522 10.2 µM | SK-MEL-5 29.3 µM | NCI-H460 60.7 µM | TK-10 14.2 µM | SF-268 27.5 µM | NCI-H23 20.6 µM | EKVX 33.7 µM
